Test results taken from US10549237B2, “Regenerable draw solute for osmotically driven processes” (NANYANG TECHNOLOGICAL UNIVERSITY, priority 2015, dated 2020).

Columns and labels:
[1] = Residual Na2HPO4 concentration after acetone extractive crystallization of the supernatant (Example 2); format: physicochemical; settings: acetone added to 10 wt % supernatant; lowest value, depends on amount of solvent
Experimental: […]. There is an instantaneous phase separation resulting in precipitation of solid crystal hydrates upon acetone addition. The mixture was allowed to settle for 1 hour before the solid crystals are removed. […] The Na2HPO4 concentration in water/acetone mixtures were then calculated accordingly. All the measurements were repeated for three times.

[2] = Water flux during forward osmosis in a cross-flow setup (Example 3, FIG. 2); settings: 40 wt % draw solution
Experimental: Water flux during FO was measured in a cross-flow setup by monitoring the feed solution weight decrease with time. The method is adapted from a reported standard procedure. The initial weight of feed solution and draw solution was 500 g and 200 g, respectively. The effective membrane area was 58.5 cm^2. The feed and draw solutions flew in co-current in order to reduce the tension stress on membrane. The flow rate was 400 ml/min and plastic spacers were used in both feed and draw sides to reduce concentration polarization. During the tests, the temperature in draw solution and feed solution were monitored to be 50±1° C. and 46±2° C. respectively. The concentrations of feed solution and draw solution were kept virtually constant during the measurement. Water flux measurements were conducted in both FO mode (selective membrane layer facing towards feed solution) and PRO mode (selective layer facing towards draw solution). The water flux was calculated by: Flux=Δm/(A*t) (1)
Where Δm is the value of feed solution weight decrease (kg), t is the corresponding measurement time (h) and A is the membrane area in square meters. Therefore, the flux is in unit of liter per square meter per hour (LMH) if the density of water is assumed to be 1 kg/L.

residual Na2HPO4 concentration after extractive crystallization [1]: 0.28 wt %
water flux ([2]; feed 3.5 wt % NaCl (artificial seawater), FO mode, draw 50±1° C., feed 46±2° C.): 8 LMH
water flux ([2]; feed 3.5 wt % NaCl (artificial seawater), PRO mode, draw 50±1° C., feed 46±2° C.): 19 LMH
water flux ([2]; feed 17 wt % NaCl): about 1.0 LMH
Substance: Disodium phosphate
